Drawing on patent US9611278B2 (Merck Sharp & Dohme Corp., priority 2013, dated 2017), this text covers Emax and EC50 for 16 compounds.

pEC50: −log10 of the molar value.

In the test the target is T1, sGC α1/β1 heterodimer stably expressed in CHO-K1 cells (CHO-K1/sGC) (Homo sapiens, UniProt Q02108+Q02153).
T1 construct: expressed in transfected cells
T1 sequence (Q02108 1-690): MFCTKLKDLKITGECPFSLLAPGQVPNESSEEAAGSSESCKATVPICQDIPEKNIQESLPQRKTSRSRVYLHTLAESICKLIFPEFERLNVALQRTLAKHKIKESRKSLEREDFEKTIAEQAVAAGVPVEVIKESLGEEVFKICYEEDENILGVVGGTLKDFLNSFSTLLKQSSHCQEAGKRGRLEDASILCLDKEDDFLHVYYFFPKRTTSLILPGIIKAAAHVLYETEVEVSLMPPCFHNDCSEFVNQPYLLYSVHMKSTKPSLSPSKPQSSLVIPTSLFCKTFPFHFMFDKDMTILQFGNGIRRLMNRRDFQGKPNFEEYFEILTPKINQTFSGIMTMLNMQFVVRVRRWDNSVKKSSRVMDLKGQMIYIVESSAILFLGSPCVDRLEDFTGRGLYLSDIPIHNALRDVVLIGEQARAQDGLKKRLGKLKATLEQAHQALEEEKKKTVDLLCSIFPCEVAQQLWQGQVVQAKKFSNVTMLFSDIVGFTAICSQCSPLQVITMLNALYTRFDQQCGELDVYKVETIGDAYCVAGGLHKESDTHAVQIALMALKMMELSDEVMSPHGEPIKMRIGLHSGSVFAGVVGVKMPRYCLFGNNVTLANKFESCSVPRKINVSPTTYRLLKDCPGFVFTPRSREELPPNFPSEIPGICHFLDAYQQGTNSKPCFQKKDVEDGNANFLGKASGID
T1 sequence (Q02153 1-619): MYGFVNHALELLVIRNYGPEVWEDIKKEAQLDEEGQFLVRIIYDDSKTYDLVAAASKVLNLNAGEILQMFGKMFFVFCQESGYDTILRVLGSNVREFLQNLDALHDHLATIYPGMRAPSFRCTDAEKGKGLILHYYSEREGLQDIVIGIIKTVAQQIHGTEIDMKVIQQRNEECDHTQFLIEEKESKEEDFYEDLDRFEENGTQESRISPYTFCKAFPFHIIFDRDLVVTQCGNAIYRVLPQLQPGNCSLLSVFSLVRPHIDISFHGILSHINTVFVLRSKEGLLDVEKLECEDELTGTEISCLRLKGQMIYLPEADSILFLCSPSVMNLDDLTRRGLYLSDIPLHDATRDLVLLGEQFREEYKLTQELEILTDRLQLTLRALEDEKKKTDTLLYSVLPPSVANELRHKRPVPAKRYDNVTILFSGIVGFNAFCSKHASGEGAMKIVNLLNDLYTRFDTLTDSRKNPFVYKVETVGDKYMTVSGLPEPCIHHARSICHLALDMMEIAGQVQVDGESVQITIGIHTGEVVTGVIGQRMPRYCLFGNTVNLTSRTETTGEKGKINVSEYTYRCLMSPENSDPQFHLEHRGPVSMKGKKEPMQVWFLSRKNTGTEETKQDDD
The experiment in a line: Cell-based sGC Functional Assay (CASA Assay). The settings on record: for Emax: CHO-K1, activation as percentage of maximum cGMP production of Compound A (set to 100%), read-out: % Act.; for pEC50: inflection point of cGMP generation in CHO-K1/sGC cells, 4P fit, 1 hr at 37° C., read-out: IP. Put shortly: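 CHO-K1 cells stably expressing human sGC α1/β1 were incubated with compound for 1 h at 37 °C in buffer with 0.5 mM IBMX and 2.5% DMSO, with or without 1 μM DETA-NO. Intracellular cGMP was read by HTRF and expressed as percentage of maximal activation by reference activator Compound A. Values came from a 4-parameter fit.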

On to `CC(C)c1nnc(C2(C)C(=O)Nc3nc(-c4nc(CCC(F)(F)C(F)(F)F)nc5c4cnn5C)nc(N)c32)o1` (centres unmarked) [Example 50, 4-Amino-5-(5-isopropyl-1,3,4-oxadiazol-2-yl)-5-methyl-2-(1-methyl-6-(3,3,4,4,4-pentafluorobutyl)-1H-pyrazolo[3,4-d]pyrimidin-4-yl)-5,7-dihydro-6H-pyrrolo[2,3-d]pyrimidin-6-one], for which the Emax stood at 176% and the pEC50 was 7.08.

With `Cn1ncc2c(-c3nc(N)c4c(n3)NC(=O)C4(c3nnc(C4CC4)o3)C3CC3)nc(CC3CC(F)(F)C3)nc21` (centres unmarked) [Example 51, 4-Amino-5-cyclopropyl-5-(5-cyclopropyl-1,3,4-oxadiazol-2-yl)-2-(6-((3,3-difluorocyclobutyl)methyl)-1-methyl-1H-pyrazolo[3,4-d]pyrimidin-4-yl)-5,7-dihydro-6H-pyrrolo[2,3-d]pyrimidin-6-one], the Emax worked out at 154% and the pEC50 is 6.92.

As to `CCC1(c2nnc(C3CC3)o2)C(=O)Nc2nc(-c3nc(CCC(F)(F)C(F)(F)F)nc4c3cnn4C)nc(N)c21` (centres unmarked) [Example 53, 4-Amino-5-(5-cyclopropyl-1,3,4-oxadiazol-2-yl)-5-ethyl-2-(1-methyl-6-(3,3,4,4,4-pentafluorobutyl)-1H-pyrazolo[3,4-d]pyrimidin-4-yl)-5,7-dihydro-6H-pyrrolo[2,3-d]pyrimidin-6-one], the Emax amounted to 165% and the pEC50 is 6.55.

Consider `Cn1ncc2c(-c3nc(N)c4c(n3)NC(=O)C4(C)c3cn(C4CC4)nn3)nc(CCC(F)(F)C(F)(F)F)nc21` (centres unmarked) [Example 59, 4-Amino-5-(1-cyclopropyl-1H-1,2,3-triazol-4-yl)-5-methyl-2-(1-methyl-6-(3,3,4,4,4-pentafluorobutyl)-1H-pyrazolo[3,4-d]pyrimidin-4-yl)-5,7-dihydro-6H-pyrrolo[2,3-d]pyrimidin-6-one], for which the Emax came to 117% and the pEC50 is 7.54.

Regarding `CC(C)n1ncc(C2(C)C(=O)Nc3nc(-c4nc(CCC(F)(F)C(F)(F)F)nc5c4cnn5C)nc(N)c32)n1` (centres unmarked) [Example 61, 4-Amino-5-(2-isopropyl-2H-1,2,3-triazol-4-yl)-5-methyl-2-(1-methyl-6-(3,3,4,4,4-pentafluorobutyl)-1H-pyrazolo[3,4-d]pyrimidin-4-yl)-5,7-dihydro-6H-pyrrolo[2,3-d]pyrimidin-6-one], the Emax is 110% and the pEC50 was 6.57.

`[2H]C([2H])([2H])n1ncc2c(-c3nc(N)c4c(n3)NC(=O)C4(C)c3cn(CC)nn3)nc(CCC(F)(F)C(F)(F)F)nc21` (centres unmarked) [Example 64, 4-Amino-5-(1-ethyl-1H-1,2,3-triazol-4-yl)-5-methyl-2-(1-(methyl-d3)-6-(3,3,4,4,4-pentafluorobutyl)-1H-pyrazolo[3,4-d]pyrimidin-4-yl)-5,7-dihydro-6H-pyrrolo[2,3-d]pyrimidin-6-one]: the Emax worked out at 120% and the pEC50 is 6.94.

Take `Cn1ncc2c(-c3nc(N)c4c(n3)NC(=O)C4(C)c3cn(CC4CC4)nn3)nc(CCC(F)(F)C(F)(F)F)nc21` (centres unmarked) [Example 65, 4-Amino-5-(1-(cyclopropylmethyl)-1H-1,2,3-triazol-4-yl)-5-methyl-2-(1-methyl-6-(3,3,4,4,4-pentafluorobutyl)-1H-pyrazolo[3,4-d]pyrimidin-4-yl)-5,7-dihydro-6H-pyrrolo[2,3-d]pyrimidin-6-one]: the Emax came to 111% and the pEC50 is 6.77.

For `CC(C)Cn1cc(C2(C)C(=O)Nc3nc(-c4nc(CCC(F)(F)C(F)(F)F)nc5c4cnn5C)nc(N)c32)nn1` (centres unmarked) [Example 70, 34-Amino-5-(1-isobutyl-1H-1,2,3-triazol-4-yl)-5-methyl-2-(1-methyl-6-(3,3,4,4,4-pentafluorobutyl)-1H-pyrazolo[3,4-d]pyrimidin-4-yl)-5,7-dihydro-6H-pyrrolo[2,3-d]pyrimidin-6-one], the Emax came out at 132% and the pEC50 is 6.53.

As for `CCn1ncc(C2(C)C(=O)Nc3nc(-c4nc(CCC(F)(F)C(F)(F)F)nc5c4cnn5C)nc(N)c32)n1` (centres unmarked) [Example 79, 4-Amino-5-(2-ethyl-2H-1,2,3-triazol-4-yl)-5-methyl-2-(1-methyl-6-(3,3,4,4,4-pentafluorobutyl)-1H-pyrazolo[3,4-d]pyrimidin-4-yl)-5,7-dihydro-6H-pyrrolo[2,3-d]pyrimidin-6-one], the Emax came to 169% and the pEC50 is 6.31.

As for `Cn1ncc(C2(C)C(=O)Nc3nc(-c4nc(CCC(F)(F)C(F)(F)F)nc5c4cnn5C)nc(N)c32)n1` (centres unmarked) [Example 80, 4-Amino-5-methyl-5-(2-methyl-2H-1,2,3-triazol-4-yl)-2-(1-methyl-6-(3,3,4,4,4-pentafluorobutyl)-1H-pyrazolo[3,4-d]pyrimidin-4-yl)-5,7-dihydro-6H-pyrrolo[2,3-d]pyrimidin-6-one], the Emax amounted to 90% and the pEC50 was 6.39.

As for `CC(C)n1cc(C2(C)C(=O)Nc3nc(-c4nc(CCC(F)(F)C(F)(F)F)nc5c4cnn5C)ncc32)nn1` (centres unmarked) [Example 81], the Emax is 102% and the pEC50 was 6.21.

With `[2H]C([2H])([2H])n1ncc2c(-c3nc(N)c4c(n3)NC(=O)C4(c3nc(CC(C)(C)C(=O)OCC)cs3)C3CC3)nc(CCC(F)(F)C(F)(F)F)nc21` (centres unmarked) [Example 82, Ethyl 3-(2-(4-amino-5-cyclopropyl-2-(1-(methyl-d3)-6-(3,3,4,4,4-pentafluorobutyl)-1H-pyrazolo[3,4-d]pyrimidin-4-yl)-6-oxo-6,7-dihydro-5H-pyrrolo[2,3-d]pyrimidin-5-yl)thiazol-4-yl)-2,2-dimethylpropanoate], the Emax amounted to 78% and the pEC50 was 6.29.

With `[2H]C([2H])([2H])n1ncc2c(-c3nc(N)c4c(n3)NC(=O)C4(c3nc(CC(C)(C)C(=O)O)cs3)C3CC3)nc(CCC(F)(F)C(F)(F)F)nc21` (centres unmarked) [Example 83, 3-(2-(4-Amino-5-cyclopropyl-2-(1-(methyl-d3)-6-(3,3,4,4,4-pentafluorobutyl)-1H-pyrazolo[3,4-d]pyrimidin-4-yl)-6-oxo-6,7-dihydro-5H-pyrrolo[2,3-d]pyrimidin-5-yl)thiazol-4-yl)-2,2-dimethylpropanoic acid], the Emax was 80% and the pEC50 is 6.10.

Regarding `Cn1ccc2c(-c3nc(N)c4c(n3)NC(=O)C4(C)c3ccc(F)cn3)nc(CCC(F)(F)C(F)(F)F)nc21` (centres unmarked) [Example 85, 4-Amino-5-(5-fluoropyridin-2-yl)-5,7′-dimethyl-2′-(3,3,4,4,4-pentafluorobutyl)-5,7-dihydro-6H,7′H-[2,4′-bipyrrolo[2,3-d]pyrimidin]-6-one], the Emax was 108% and the pEC50 is 6.95.

For `Cc1nnc(C2(C)C(=O)Nc3nc(-c4nc(CCC(F)(F)C(F)(F)F)nc5c4ccn5C)nc(N)c32)o1` (centres unmarked) [Example 87, 4-Amino-5,7′-dimethyl-5-(5-methyl-1,3,4-oxadiazol-2-yl)-2′-(3,3,4,4,4-pentafluorobutyl)-5,7-dihydro-6H,7′H-[2,4′-bipyrrolo[2,3-d]pyrimidin]-6-one], the Emax was 86% and the pEC50 is 6.42.

`Cn1ccc2c(-c3nc(N)c4c(n3)NC(=O)C4(c3nnc(C4CC4)o3)C3CC3)nc(CCC(F)(F)C(F)(F)F)nc21` (centres unmarked) [Example 88, 4-Amino-5-cyclopropyl-5-(5-cyclopropyl-1,3,4-oxadiazol-2-yl)-7′-methyl-2′-(3,3,4,4,4-pentafluorobutyl)-5,7-dihydro-6H,7′H-[2,4′-bipyrrolo[2,3-d]pyrimidin]-6-one]: the Emax was 109% and the pEC50 is 6.15.
